Series [1] addresses T1, S-Acetyl-coenzyme A synthetase (EC 6.2.1.1) from baker's yeast, free enzyme (Saccharomyces cerevisiae, UniProt Q01574).
T1 construct: purchased Sigma-Aldrich (Germany)
T1 sequence (Q01574 1-713): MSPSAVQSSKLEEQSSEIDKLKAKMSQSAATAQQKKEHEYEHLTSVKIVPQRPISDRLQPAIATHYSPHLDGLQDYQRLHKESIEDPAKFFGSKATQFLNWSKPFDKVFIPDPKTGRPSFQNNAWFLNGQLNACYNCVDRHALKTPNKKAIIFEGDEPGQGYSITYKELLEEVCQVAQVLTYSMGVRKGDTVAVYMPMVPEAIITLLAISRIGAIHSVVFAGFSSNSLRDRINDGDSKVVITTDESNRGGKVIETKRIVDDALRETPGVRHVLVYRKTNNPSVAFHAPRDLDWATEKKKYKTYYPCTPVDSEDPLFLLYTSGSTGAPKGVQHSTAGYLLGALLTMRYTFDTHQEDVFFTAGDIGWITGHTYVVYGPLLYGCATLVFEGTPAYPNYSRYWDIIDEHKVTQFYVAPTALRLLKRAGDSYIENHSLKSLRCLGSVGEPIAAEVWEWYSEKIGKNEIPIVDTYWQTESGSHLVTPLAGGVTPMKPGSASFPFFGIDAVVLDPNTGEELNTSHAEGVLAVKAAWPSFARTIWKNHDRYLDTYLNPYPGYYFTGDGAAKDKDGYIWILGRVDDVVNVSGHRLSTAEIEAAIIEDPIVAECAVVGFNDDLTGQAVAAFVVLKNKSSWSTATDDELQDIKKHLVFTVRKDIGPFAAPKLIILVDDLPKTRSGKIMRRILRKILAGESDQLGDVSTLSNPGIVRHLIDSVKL
Put plainly: Reaction kinetics of free Acetyl CoA-synthetase for acetate (citrate synthase/malate dehydrogenase coupled assay, Table 2). Type of series: biochemical. The following applies: acetate substrate at 37°C, ATP 1 mM, CoA 0.5 mM, Lineweaver-Burk plot. The protocol:
The activity of free and immobilized Acs was determined spectrophotometrically by following acetyl CoA synthesis at 340 nm wavelength by coupling to Citrate synthase (CS) and malate dehydrogenase (MDH) assay.
The assay medium composition for enzyme activity consists of 20 mM potassium acetate, 4 mM MgCl, 4 mM glutathione, 1 mM ATP, 500 µM co-enzyme A, 1 mM NAD and 4 mM malate in 100mM Tris Cl buffer pH 8. The acetyl CoA synthesized was correlated to the concentration of NADH formed in a coupled assay using […]. One unit of enzyme activity was defined as the amount of enzyme which is required to form 1 µmol of NADH per min at pH 8 and 37°C.
The reaction kinetics of free and immobilized enzymes was studied at various concentrations of acetate (5 mM - 0.3 mM) as a substrate and keeping concentrations of ATP and CoA constant at 1 mM and 0.5 mM, respectively. […]
(§1) Assuming Michaelis-Menten kinetics for Acetyl CoA-synthetase by the following equations: V = (Vmax [S])/(Km + [S]) [formula] where V is the rate of the reaction, [S] is the concentration of the substrate, Km is the apparent constant, and Vmax is the maximum of reaction velocity. The values for Km and Vmax, were estimated with the help of a Lineweaver-Burk plot for the Michaelis-Menten equation expressed as follows: (1)/(V) = (Km)/(Vmax)[…](1)/([S]) + (1)/(Vmax) [formula] […]

The target of series [2] is T1, S-Acetyl-coenzyme A synthetase (EC 6.2.1.1) from baker's yeast, free enzyme. Put plainly: Reaction kinetics of free Acetyl CoA-synthetase for acetate (pyrophosphate-molybdate assay, Table 1). Type of series: biochemical. The settings on record: acetate substrate at 37°C, ATP 1 mM, CoA 0.5 mM, Lineweaver-Burk plot. The protocol: (§2) The activity of free acetyl CoA synthetase and their bioconjugates with PNIPAm-AEMA or microgel was studied in borate buffer (0.1 M, pH 8), in presence of 20 mM potassium acetate, 4 mM MgCl2, 4 mM glutathione, 1 mM ATP, and 500 µM coenzyme A. The reaction was terminated by addition of acidic molybdate reagent. The pyrophosphate-molybdate complex formed was further reduced by addition of mercaptoethanol and Eikonogen reagent. The obtained coloured product was quantified by measuring the absorption at 590 nm and pyrophosphate concentration was determined (ε = 2.7 x 10^4 M^-1 cm^-1).
(§3) One unit of enzyme activity was defined as the amount of enzyme required to form 1 µmol pyrophosphate per min at pH 8 and 37°C. Bradford micro assay with a sensitivity of 1-10 µg/mL was used to determine protein concentration using bovine serum albumin as the standard protein. […]
as §1

Series [3] has as its target T2, S-Acetyl-coenzyme A synthetase (EC 6.2.1.1) from baker's yeast, Immobilized enzyme (PNIPAm-AEMA) (Saccharomyces cerevisiae, UniProt Q01574).
T2 construct: purchased Sigma-Aldrich (Germany)
T2 sequence (Q01574 1-713): T1 sequence (Q01574 1-713)
Description: Reaction kinetics of PNIPAm-AEMA-immobilized Acetyl CoA-synthetase for acetate (pyrophosphate-molybdate assay, Table 1). Type of series: biochemical. The following applies: acetate substrate at 37°C; ATP 1 mM, CoA 0.5 mM; enzyme covalently immobilized on PNIPAm-AEMA microgel. As for the experimental part:
Acetyl CoA-synthetase was covalently immobilized to PNIPAm-AEMA core-shell microgel using carbodiimide chemistry in 0.1 M Borate buffer at pH 8. Inorganic phosphate present in commercial enzyme preparation (interferes with molybdate assay) was removed by filtration using 30 kDa centrifuge filter tubes (Millipore).
The activity of free acetyl CoA synthetase and their bioconjugates with PNIPAm-AEMA or microgel was studied in borate buffer (0.1 M, pH 8), in presence of 20 mM potassium acetate, 4 mM MgCl2, 4 mM glutathione, 1 mM ATP, and 500 µM coenzyme A. The reaction was terminated by addition of acidic molybdate reagent. The pyrophosphate-molybdate complex formed was further reduced by addition of mercaptoethanol and Eikonogen reagent. The obtained coloured product was quantified by measuring the absorption at 590 nm and pyrophosphate concentration was determined (ε = 2.7 x 10^4 M^-1 cm^-1). […]
as §1

Series [4] concerns the target T3, S-Acetyl-coenzyme A synthetase (EC 6.2.1.1) from baker's yeast, Immobilized enzyme (PEI-PNIPAm) (Saccharomyces cerevisiae, UniProt Q01574).
T3 construct: purchased Sigma-Aldrich (Germany)
T3 sequence (Q01574 1-713): T1 sequence (Q01574 1-713)
Description: Reaction kinetics of PEI-PNIPAm-immobilized Acetyl CoA-synthetase for acetate (citrate synthase/malate dehydrogenase coupled assay, Table 2). Type of series: biochemical. The settings on record: acetate substrate at 37°C; ATP 1 mM, CoA 0.5 mM; enzyme adsorbed on PEI-PNIPAm microgel. The protocol:
The immobilization of Acetyl CoA-synthetase on PEI-PNIPAm microgel was achieved via adsorption in 0.1 M Tris-CI buffer at pH 8 for 6 h at 4°C. The conjugate was obtained by centrifugation at 12,000 rpm for 15 min at 25°C and subsequently washed with the same buffer to remove non adsorbed enzymes. Using Micro BCA (for protein concentrations lower than 20 µg/mL) assay kits, the amounts of adsorbed enzyme loaded to the microgel was determined by subtracting the residual protein content in the supernatant from the initial protein content. The enzyme and conjugate were stored in 0.1 M Borate buffer containing 1 mM glutathione and 1 mM magnesium chloride pH 8 for further use.
The activity of free and immobilized Acs was determined spectrophotometrically by following acetyl CoA synthesis at 340 nm wavelength by coupling to Citrate synthase (CS) and malate dehydrogenase (MDH) assay. […]
as §1

Substrate in series [5]: CC(=O)O
Put plainly: Reaction kinetics of free Acetyl CoA-synthetase for acetate (pyrophosphate-molybdate assay, Table 1). Type of series: biochemical, Saccharomyces cerevisiae. The following applies: other: acetate substrate at 37°C, acetate 5 mM - 0.3 mM, ATP 1 mM, CoA 0.5 mM, Lineweaver-Burk plot, free enzyme, pH 8.0. As for the experimental part: as §2, §3, §1

This note sets out measurements from EP2921553B1, “Enzymatic reactor system” (Leibniz-Institut für Polymerforschung Dresden e.V., priority 2014, dated 2015).

A word on the Km: it is the substrate concentration at which the rate is half of its maximum.

As to `CC(=O)O` [acetate], the Vmax in series [1] was 16x10^-3 ± 1 x10^-3 U/min; in series [2], 8.5x10^-3 ± 0.4x10^-3 U/min; in series [3], 5.6 x10^-3± 0.1x10^-3 U/min; in series [4] it was 44 x10^-3± 2 x10^-3 U/min.

B1: S-Acetyl-coenzyme A synthetase (EC 6.2.1.1) from baker's yeast, free enzyme (Saccharomyces cerevisiae S288C) (protein)
chain: T1 sequence (Q01574 1-713)
notes: purchased Sigma-Aldrich (Germany)
As for B1, in series [5], the Km was found to be 170 ± 30 µM.
